Results taken from the NIST ThermoML archive (doi:10.1016/j.jct.2018.09.036).
Numbers after ± are expanded uncertainties.

Assay: mn = molality of the nth substance listed, in mol/kg
Settings: 298.15 K, 99.7 kPa, Liquid; for viscosity: Falling or rolling sphere viscometry; for mass density: Vibrating tube method

Row | SMILES | viscosity (m2 = 0) [mPa·s] | viscosity (m1 = 0.15) [mPa·s] | viscosity (m1 = 0.3) [mPa·s] | viscosity (m1 = 0.45) [mPa·s] | viscosity (m1 = 0.6) [mPa·s] | viscosity (m1 = 0.7) [mPa·s] | viscosity (m1 = 0.8) [mPa·s] | mass density (m1 = 0.15) [kg/m3] | mass density (m1 = 0.3) [kg/m3] | mass density (m1 = 0.45) [kg/m3] | mass density (m1 = 0.6) [kg/m3] | mass density (m1 = 0.7) [kg/m3] | mass density (m1 = 0.8) [kg/m3] | other results
1 | O [water] + CCn1cc[n+](C)c1.[Br-] | 0.89 ± 0.019 |  |  |  |  |  |  |  |  |  |  |  |  | 
2 | CCn1cc[n+](C)c1.[Br-] [1-ethyl-3-methylimidazolium bromide] + O |  | 0.899 ± 0.019 | 0.93 ± 0.02 | 0.961 ± 0.021 | 0.992 ± 0.021 | 1.013 ± 0.022 | 1.036 ± 0.022 | 1004.96 ± 0.34 | 1012.56 ± 0.43 | 1019.92 ± 0.53 | 1027.01 ± 0.64 | 1031.63 ± 0.71 | 1036.11 ± 0.35 | 
3 | CCCCn1cc[n+](C)c1.[Br-] [1-butyl-3-methylimidazolium bromide] + O |  | 0.922 ± 0.02 | 0.974 ± 0.021 | 1.028 ± 0.022 | 1.084 ± 0.024 | 1.121 ± 0.025 | 1.164 ± 0.025 | 1004.39 ± 0.34 | 1011.43 ± 0.41 | 1018.2 ± 0.5 | 1024.73 ± 0.6 | 1028.96 ± 0.66 | 1033.08 ± 0.35 | 
4 | NCC(=O)O [2-aminoacetic acid] + O |  | 0.908 ± 0.019 | 0.927 ± 0.02 |  |  |  |  | 1001.78 ± 0.32 | 1006.42 ± 0.35 |  |  |  |  | viscosity (m1 = 0.1): 0.902 ± 0.019 mPa·s; viscosity (m1 = 0.2): 0.914 ± 0.019 mPa·s; viscosity (m1 = 0.25): 0.92 ± 0.02 mPa·s; viscosity (m1 = 0.35): 0.934 ± 0.02 mPa·s; mass density (m1 = 0.1): 1000.22 ± 0.31 kg/m3; mass density (m1 = 0.2): 1003.34 ± 0.33 kg/m3; mass density (m1 = 0.25): 1004.88 ± 0.34 kg/m3; mass density (m1 = 0.35): 1007.94 ± 0.31 kg/m3
5 | O [water] + CCCCn1cc[n+](C)c1.[Br-] | 0.89 ± 0.019 |  |  |  |  |  |  |  |  |  |  |  |  | 
6 | O [water] + NCC(=O)O | 0.89 ± 0.019 |  |  |  |  |  |  |  |  |  |  |  |  | 
7 | O [water] + CCCCCCn1cc[n+](C)c1.[Br-] | 0.89 ± 0.019 |  |  |  |  |  |  |  |  |  |  |  |  | 
8 | CCCCCCn1cc[n+](C)c1.[Br-] [3-hexyl-1-methyl-1H-imidazolium bromide] + O |  | 0.947 ± 0.02 | 1.018 ± 0.022 | 1.093 ± 0.024 | 1.169 ± 0.026 | 1.221 ± 0.027 | 1.273 ± 0.027 | 1003.87 ± 0.33 | 1010.37 ± 0.4 | 1016.58 ± 0.47 | 1022.49 ± 0.56 | 1026.26 ± 0.6 | 1029.91 ± 0.35 | 
